In PubChem BioAssay AID328 (DTP/NCI, 2004):
Several values for one entry are separate records, joined by “and”; a condition that tells them apart may be missing. Identical values can stand only once. Toxic doses and inconclusive results are not listed. Non-standard residues stand in square brackets, D forms with d. Residues, ends and D or L forms follow the SMILES beside them. ξ: configuration not given here. *: point of attachment. Cbz = O=C(OCc1ccccc1)*; Boc = CC(C)(C)OC(=O)*; ξK = NCCCCC(N)C(=O)O; OBn = c1ccc(CO*)cc1

System: BDF1 mice, P388 leukemia ip, median survival T/C
Assay: NCI In Vivo Anticancer Drug Screen. Data for tumor model P388 Leukemia (intraperitoneal) in B6D2F1 (BDF1) mice
Conditions: endpoint: median survival time, higher = longer survival
How it was run: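 Each value expresses how treatment altered survival: treated-mouse outcome over vehicle-mouse outcome, both groups bearing the transplanted tumour.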

[1] = dose: 50.0 mg/kg/injection, schedule: Q01DX005 (ip), vehicle: saline with Tween-80
[2] = dose: 200.0 mg/kg/injection, schedule: Q01DX005 (ip), vehicle: saline with Tween-80
[3] = dose: 100.0 mg/kg/injection, schedule: Q01DX009 (ip), vehicle: saline with Tween-80
[4] = dose: 200.0 mg/kg/injection, schedule: Q01DX009 (ip), vehicle: saline with Tween-80
[5] = dose: 200.0 mg/kg/injection, schedule: Q04DX003 (ip), vehicle: saline with Tween-80
[6] = dose: 400.0 mg/kg/injection, schedule: Q01DX009 (ip), vehicle: saline with Tween-80
[7] = dose: 400.0 mg/kg/injection, schedule: Q04DX003 (ip), vehicle: saline with Tween-80
[8] = dose: 100.0 mg/kg/injection, schedule: Q04DX003 (ip), vehicle: saline with Tween-80
[9] = dose: 100.0 mg/kg/injection, schedule: Q01DX009 (ip), vehicle: saline
[10] = dose: 100.0 mg/kg/injection, schedule: Q04DX003 (ip), vehicle: Klucel (hydroxypropylcellulose) (HPC)
[11] = dose: 200.0 mg/kg/injection, schedule: Q04DX003 (ip), vehicle: Klucel (hydroxypropylcellulose) (HPC)
[12] = dose: 400.0 mg/kg/injection, schedule: Q04DX003 (ip), vehicle: Klucel (hydroxypropylcellulose) (HPC)
[13] = dose: 100.0 mg/kg/injection, schedule: Q04DX002 (ip), vehicle: saline with Tween-80
[14] = dose: 200.0 mg/kg/injection, schedule: Q04DX002 (ip), vehicle: saline with Tween-80

For `COC(=O)CCCCCCCCC[CH2][Hg][Cl]`, the T/C (dose: 6.25 mg/kg/injection, schedule: Q04DX003 (ip), vehicle: saline sonified) was 100 % of control, the T/C (dose: 12.5 mg/kg/injection, schedule: Q04DX003 (ip), vehicle: saline sonified) was 100 % of control and the T/C (dose: 25.0 mg/kg/injection, schedule: Q04DX003 (ip), vehicle: saline sonified) was 122 % of control.

For `O=c1c2ccccc2nnn1Cc1ccco1`, the T/C [1] was 99 % of control and the T/C [2] was 89 % of control.

In the case of `COC(=O)NC1C(C)C=CC(C)C1I` (stereo unspecified), the T/C [3] is reported as 95 % of control, the T/C [4] is reported as 113 % of control and the T/C [5] is reported as 105 % of control. The T/C [6] was 100 % of control and the T/C [7] was 110 % of control.

For `Cc1cc(=O)[nH]c2c1CCC2`, the T/C (dose: 50.0 mg/kg/injection, schedule: Q01DX009 (ip), vehicle: saline with Tween-80) was 109 % of control, the T/C (dose: 50.0 mg/kg/injection, schedule: Q04DX003 (ip), vehicle: saline with Tween-80) was 100 % of control and the T/C [3] was 90 % of control. For the same compound, the T/C [8] was 100 % of control, the T/C [4] was 104 % of control and the T/C [5] was 100 % of control.

With `N#[N+]c1ccc2c(S(=O)(=O)O)cccc2c1O` the T/C [9] was 92 % of control, the T/C (dose: 100.0 mg/kg/injection, schedule: Q04DX003 (ip), vehicle: saline) was 100 % of control and the T/C (dose: 200.0 mg/kg/injection, schedule: Q01DX009 (ip), vehicle: saline) was 103 % of control. The T/C (dose: 200.0 mg/kg/injection, schedule: Q04DX003 (ip), vehicle: saline) was 108 % of control, the T/C (dose: 400.0 mg/kg/injection, schedule: Q01DX009 (ip), vehicle: saline) was 89 % of control and the T/C (dose: 400.0 mg/kg/injection, schedule: Q04DX003 (ip), vehicle: saline) was 95 % of control.

With `O=[N+]([O-])c1ccc(Oc2ccc(C3N(c4ccccc4)CCN3c3ccccc3)cc2)c([N+](=O)[O-])c1` the T/C (dose: 12.5 mg/kg/injection, schedule: Q01DX009 (ip), vehicle: water) was 99 % of control, the T/C (dose: 25.0 mg/kg/injection, schedule: Q01DX009 (ip), vehicle: water) was 89 % of control and the T/C (dose: 50.0 mg/kg/injection, schedule: Q01DX009 (ip), vehicle: water) was 99 % of control. The T/C (dose: 100.0 mg/kg/injection, schedule: Q01DX009 (ip), vehicle: water) was 90 % of control and the T/C (dose: 200.0 mg/kg/injection, schedule: Q01DX009 (ip), vehicle: water) was 91 % of control.

In the case of `CC(SC(C)c1ccccc1)c1ccccc1` (stereo unspecified), the T/C [8] is reported as 108 % of control, the T/C [5] is reported as 108 % of control and the T/C [7] is reported as 116 % of control.

For `O=C(Cl)C1CC2c3ccccc3C1([N+](=O)[O-])c1ccccc12` (stereo unspecified), the T/C [10] was 104 % of control, the T/C [11] was 100 % of control and the T/C [12] was 113 % of control.

For `NC(CC1=CCC=CC1)C(=O)O` (stereo unspecified), the T/C (dose: 50.0 mg/kg/injection, schedule: Q01DX009 (ip), vehicle: saline) was 96 % of control and 113 % of control and the T/C [9] was 117 % of control.

For `Cc1ccc(S(=O)(=O)N(CC(=O)O)c2cccc(Cl)c2)cc1`, the T/C (dose: 100.0 mg/kg/injection, schedule: Q01DX009 (ip), vehicle: Klucel (hydroxypropylcellulose) (HPC)) was 100 % of control, the T/C [10] was 100 % of control and the T/C (dose: 200.0 mg/kg/injection, schedule: Q01DX009 (ip), vehicle: Klucel (hydroxypropylcellulose) (HPC)) was 100 % of control. The T/C [11] was 104 % of control, the T/C (dose: 400.0 mg/kg/injection, schedule: Q01DX009 (ip), vehicle: Klucel (hydroxypropylcellulose) (HPC)) was 104 % of control and the T/C [12] was 100 % of control.

`CC(C)(C)OC(=O)NCC(=O)NC(CCCCNC(=O)OCc1ccccc1)C(=O)OCc1ccccc1` (stereo not drawn) (Boc-Gly-[ξK](Cbz)-OBn) was tested, and the T/C [1] was 95 % of control, the T/C (dose: 100.0 mg/kg/injection, schedule: Q01DX005 (ip), vehicle: saline with Tween-80) was 90 % of control and the T/C [2] was 104 % of control.

For `O=C1c2ccccc2C(=O)N1CC#CCN1C(=O)c2ccccc2C1=O`, the T/C (dose: 75.0 mg/kg/injection, schedule: Q01DX009 (ip), vehicle: saline with Tween-80) was 115 % of control, the T/C (dose: 150.0 mg/kg/injection, schedule: Q01DX009 (ip), vehicle: saline with Tween-80) was 90 % of control and the T/C (dose: 300.0 mg/kg/injection, schedule: Q01DX009 (ip), vehicle: saline with Tween-80) was 97 % of control.

With `CCCCN1C(=O)C/C(=C2\CC(=O)N(CCCC)C2=O)C1=O` the T/C [10] was 116 % of control, the T/C [11] was 95 % of control and the T/C [12] was 95 % of control.

With `COC(=O)c1ccc(N)c(C(Sc2ccccc2)c2ccccc2)c1` (stereo unspecified) the T/C (dose: 50.0 mg/kg/injection, schedule: Q04DX002 (ip), vehicle: saline with Tween-80) was 98 % of control, the T/C [13] was 90 % of control and the T/C [14] was 99 % of control.

`Cc1[nH]c(C)c(C(=O)OC2CCN(C)CC2)c1C` was tested, and the T/C (dose: 6.25 mg/kg/injection, schedule: Q04DX003 (ip), vehicle: saline with Tween-80) was 103 % of control, the T/C (dose: 12.5 mg/kg/injection, schedule: Q04DX003 (ip), vehicle: saline with Tween-80) was 100 % of control and the T/C (dose: 25.0 mg/kg/injection, schedule: Q04DX003 (ip), vehicle: saline with Tween-80) was 91 % of control.

`CCOC(=O)C(C1=NC(C)(C)CC(C)O1)C(C[N+](=O)[O-])c1ccccc1` (stereo unspecified) was tested, and the T/C (dose: 50.0 mg/kg/injection, schedule: Q01DX001 (ip), vehicle: saline sonified) was 100 % of control, the T/C (dose: 100.0 mg/kg/injection, schedule: Q01DX001 (ip), vehicle: saline sonified) was 100 % of control and the T/C (dose: 200.0 mg/kg/injection, schedule: Q01DX001 (ip), vehicle: saline sonified) was 100 % of control.

`Nc1ncnc2c1ncn2C1OC(COP(=O)(O)O)C(O)C1O` (stereo unspecified) was tested, and the T/C (dose: 18.8 mg/kg/injection, schedule: Q03HX016 (ip), vehicle: saline) was 121 % of control, the T/C (dose: 100.0 mg/kg/injection, schedule: Q03HX016 (ip), vehicle: saline) was 157 % of control and the T/C (dose: 100.0 mg/kg/injection, schedule: Q03HX024 (ip), vehicle: saline) was 151 % of control. For the same compound, the T/C (dose: 150.0 mg/kg/injection, schedule: Q03HX016 (ip), vehicle: saline) was 169 % of control and the T/C (dose: 150.0 mg/kg/injection, schedule: Q03HX024 (ip), vehicle: saline) was 178 % of control.

With `C=CCCc1cc(C(=O)N(c2ccccc2)C(C(=O)O)c2ccccc2)ccc1OC` (stereo unspecified) the T/C [13] was 101 % of control, the T/C [14] was 100 % of control and the T/C (dose: 400.0 mg/kg/injection, schedule: Q04DX002 (ip), vehicle: saline with Tween-80) was 108 % of control.

For `Cc1ccc(NC(=O)c2ccccc2)cc1[As]=[As]c1cc(NC(=O)c2ccccc2)ccc1C` (stereo unspecified), the T/C (dose: 1.25 mg/kg/injection, schedule: Q01DX009 (ip), vehicle: gum acacia) was 150 % of control, the T/C (dose: 1.25 mg/kg/injection, schedule: Q04DX003 (ip), vehicle: gum acacia) was 122 % of control and the T/C (dose: 2.2 mg/kg/injection, schedule: Q04DX003 (ip), vehicle: gum acacia) was 113 % of control. For the same compound, the T/C (dose: 2.5 mg/kg/injection, schedule: Q01DX009 (ip), vehicle: gum acacia) was 165 % of control, the T/C (dose: 3.3 mg/kg/injection, schedule: Q04DX003 (ip), vehicle: Klucel (hydroxypropylcellulose) (HPC)) was 116 % of control and the T/C (dose: 5.0 mg/kg/injection, schedule: Q04DX003 (ip), vehicle: Klucel (hydroxypropylcellulose) (HPC)) was 104 % of control. The T/C (dose: 10.0 mg/kg/injection, schedule: Q04DX003 (ip), vehicle: gum acacia) was 154 % of control.

For `O=C(c1cccnc1)C1Cc2ccccc2C1=O` (stereo unspecified), the T/C [3] was 100 % of control, the T/C [8] was 100 % of control and the T/C [4] was 100 % of control. The T/C [5] was 100 % of control, the T/C [6] was 91 % of control and the T/C [7] was 104 % of control.

In the case of `Cc1cc(C)nc(NNc2nc(C)cc(C)n2)n1`, the T/C [3] is reported as 92 % of control, the T/C [8] is reported as 91 % of control and the T/C [4] is reported as 103 % of control. The T/C [5] was 95 % of control, the T/C [6] was 89 % of control and the T/C [7] was 95 % of control.
